Reference: PubChem BioAssay AID1963437 (Molecular Pharmacology Branch, DTP, NCI, 2024)

System: OVCAR-8 complex spheroid, growth inhibition
Test: Anticancer human tumor OVCAR-8 cell line growth inhibition [Asc];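 also: spheroids exposed to agents for 7 days before readout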;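 as to viability, T/C: percent viability relative to DMSO vehicle wells taken as 100%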
Settings: for IC50: curve of first compound; for viability, T/C: stronger effect = lower value
Procedure: Multicellular complex tumor spheroid response to apoptosis pathway targeting inhibitors Alrizomadlin, Pelcitoclax, and Dasminapant in combination with a variety of drugs and investigational agents in selected tumor cell lines
The MDM2 inhibitor alrizomadlin, the Bcl-2/Bcl-xL inhibitor pelcitoclax, and the IAPs inhibitor dasminapant were evaluated both individually and in combination with standard of care and investigational anticancer small molecules within a complex spheroid model of solid tumors. . Complex spheroids include a stromal component modeled by human endothelial cells (HUVEC) and fibroblasts modeled by human mesenchymal stem cells (MSCs). The concentration ranges selected for each drug and investigational agent were based upon clinically achievable concentrations if the clinical Cmax of the agent was known.
Compounds. The drugs and investigational agents: alrizomadlin (APG-115; NSC831270), pelcitoclax (APG-1252; NSC835773), dasminapant (APG-1387;NSC834197), TAK-243 (NSC785004), copanlisib (NSC809693), olaparib (NSC753686), talazoparib (NSC767125), cobimetinib (NSC 768068), eltanexor (KPT-8602, NSC 794443), abemaciclib (NSC 768073), sotorasib (NSC818433), adagrasib (NSC 831453), MRTX-1133 (NSC 836407), Iadademestat (ORY1001, NSC 806812), and RMC-4630 (NSC839698), were obtained from the NCI Developmental Therapeutics Program Chemical Repository. The FDA-approved anticancer drug set is available from the Developmental Therapeutics Program at https://dtp.cancer.gov/organization/dscb/obtaining/available plates.htm. […] The stock solutions were prepared in dimethyl sulfoxide (DMSO, Sigma-Aldrich, St. Louis, MO, cat. D2650) at 800-fold the tested concentration and stored at -70 degrees C prior to their use. All drugs and investigational agents were tested over a range starting from a high concentration at or near the clinical Cmax and decreasing in half-log increments. If the clinical Cmax for an agent had not been determined, the highest concentration tested was 10 microM.
The patient-derived cancer (PDC) cell lines include five colon adenocarcinomas: 186277-243-T-J2-PDC, 616215-338-R-J1-PDC, 439559-082-T-J2-PDC, 463943-066-T-J2-PDC, and 519858-162-T-J1-PDC; three pancreatic carcinomas: 323965-272-R-J2-PDC, 521955-158-R6-J3-PDC, and 521955-158-R2-J5-PDC; two uterine sarcomas: 327498-152-R-J2-PDC and 993429-296-R-J1-PDC; two rhabdomyosarcomas: 755483-174-R-J1-PDC and 772245-204-R-J1-PDC; two soft tissue sarcomas: 126254-015-R-J1-PDC and 494315-158-R-J1-PDC; two malignant fibrous histiocytomas: 317291-083-R-J1-PDC and 596521-263-R-J1-PDC; two breast carcinomas: 171881-019-R-J1-PDC and 885512-296-R-J2-PDC; and one ovarian carcinoma: 6556581-035-R-J-PDC were obtained from the NCI PDMR, (https://pdmr.cancer.gov). The established cell lines HSSY-2 synovial sarcoma (RRID:CVCL 8719), SYO-1 synovial sarcoma (RRID:CVCL_7146), MPNST malignant peripheral neural sheath tumor were obtained from the Sloan Kettering Institute. The following established cell lines were purchased from the American Type Culture Collection (ATCC, Manassas, VA), Sor the received from the NCI repository:, PANC-1 pancreatic carcinoma (CRL-1469, RRID:CVCL_0480), OVCAR-5 ovarian carcinoma (RRID:CVCL_1628), OVCAR-8 ovarian carcinoma (RRID:CVCL_1629), , MCF-7 breast carcinoma (CRL-12584, RRID:CVCL_0031), MDA-MB-231 breast carcinoma (CRL-12532, RRID:CVCL_0062), NCI-H1876 small cell lung carcinoma (CRL-5902, RRID:CVCL_1503), NCI-H510A small cell lung carcinoma (HTB-184, RRID:CVCL_1565), NCI-H1417 (CRL-5869, RRID:CVCL_1469), and NCI-H196 small cell lung carcinoma (CRL-5823, RRID:CVCL_1509). Dr. Peter Houghton (Greehey Children's Cancer Research Institute, University of Texas Health Science Center, San Antonio, TX) provided Rh-18 rhabdomyosarcoma (RRID:CVCL_1659). Pooled donor human umbilical vein endothelial cells (HUVEC, Lonza, cat. CC-2519) and human mesenchymal stem cells (hMSC, Lonza, cat. PT-2501) were purchased from Lonza (Walkersville, MD).
Cell Culture. […]

[1] = second compound 0.00949 µM, first compound 0.00316 µM
[2] = second compound 0.00949 µM, first compound 0.01 µM
[3] = second compound 0.00949 µM, first compound 0.0316 µM
[4] = second compound 0.00949 µM, first compound 0.1 µM
[5] = second compound 0.00949 µM, first compound 0.316 µM
[6] = second compound 0.00949 µM, first compound 1 µM
[7] = second compound 0.03 µM, first compound 0.00316 µM
[8] = second compound 0.03 µM, first compound 0.01 µM
[9] = second compound 0.03 µM, first compound 0.0316 µM
[10] = second compound 0.03 µM, first compound 0.1 µM
[11] = second compound 0.03 µM, first compound 0.316 µM
[12] = second compound 0.03 µM, first compound 1 µM
[13] = second compound 0.0949 µM, first compound 0.00316 µM
[14] = second compound 0.0949 µM, first compound 0.01 µM
[15] = second compound 0.0949 µM, first compound 0.0316 µM
[16] = second compound 0.0949 µM, first compound 0.1 µM
[17] = second compound 0.0949 µM, first compound 0.316 µM
[18] = second compound 0.0949 µM, first compound 1 µM
[19] = second compound 0.3 µM, first compound 0.00316 µM
[20] = second compound 0.3 µM, first compound 0.01 µM
[21] = second compound 0.3 µM, first compound 0.0316 µM
[22] = second compound 0.3 µM, first compound 0.1 µM
[23] = second compound 0.3 µM, first compound 0.316 µM
[24] = second compound 0.3 µM, first compound 1 µM
[25] = second compound 0.949 µM, first compound 0.00316 µM
[26] = second compound 0.949 µM, first compound 0.01 µM
[27] = second compound 0.949 µM, first compound 0.0316 µM
[28] = second compound 0.949 µM, first compound 0.1 µM
[29] = second compound 0.949 µM, first compound 0.316 µM
[30] = second compound 0.949 µM, first compound 1 µM
[31] = second compound 3 µM, first compound 0.00316 µM
[32] = second compound 3 µM, first compound 0.01 µM
[33] = second compound 3 µM, first compound 0.0316 µM
[34] = second compound 3 µM, first compound 0.1 µM
[35] = second compound 3 µM, first compound 0.316 µM
[36] = second compound 3 µM, first compound 1 µM

## CCN1CCN(Cc2ccc(Nc3ncc(F)c(-c4cc(F)c5nc(C)n(C(C)C)c5c4)n3)nc2)CC1 + CCN1C(C(=O)NC23CCC(C(=O)O)(CC2)CC3)C(c2cccc(Cl)c2F)C2(C(=O)Nc3cc(Cl)ccc32)C12CCCCC2
Second compound 0.00949 µM
  IC50: > 1000 nM
Second compound 0.03 µM
  IC50: > 1000 nM
Second compound 0.0949 µM
  IC50: > 1000 nM
Second compound 0.3 µM
  IC50: > 1000 nM
Second compound 0.949 µM
  IC50: > 1000 nM
Second compound 3 µM
  IC50: > 1000 nM
[1]
  viability, T/C: 85.2%
[2]
  viability, T/C: 89.5%
[3]
  viability, T/C: 80.1%
[4]
  viability, T/C: 100%
[5]
  viability, T/C: 90.2%
[6]
  viability, T/C: 107%
[7]
  viability, T/C: 98.1%
[8]
  viability, T/C: 84.4%
[9]
  viability, T/C: 102%
[10]
  viability, T/C: 89.4%
[11]
  viability, T/C: 97.5%
[12]
  viability, T/C: 117%
[13]
  viability, T/C: 79.9%
[14]
  viability, T/C: 92.2%
[15]
  viability, T/C: 89.8%
[16]
  viability, T/C: 98.6%
[17]
  viability, T/C: 95.6%
[18]
  viability, T/C: 126%
[19]
  viability, T/C: 89.7%
[20]
  viability, T/C: 82.2%
[21]
  viability, T/C: 93.1%
[22]
  viability, T/C: 93.7%
[23]
  viability, T/C: 114%
[24]
  viability, T/C: 121%
[25]
  viability, T/C: 97.9%
[26]
  viability, T/C: 86.6%
[27]
  viability, T/C: 87.5%
[28]
  viability, T/C: 111%
[29]
  viability, T/C: 90.6%
[30]
  viability, T/C: 126%
[31]
  viability, T/C: 98.5%
[32]
  viability, T/C: 112%
[33]
  viability, T/C: 117%
[34]
  viability, T/C: 118%
[35]
  viability, T/C: 123%
[36]
  viability, T/C: 119%

## O=C(c1ccc(F)c(F)c1Nc1ccc(I)cc1F)N1CC(O)([C@@H]2CCCCN2)C1 + CCN1C(C(=O)NC23CCC(C(=O)O)(CC2)CC3)C(c2cccc(Cl)c2F)C2(C(=O)Nc3cc(Cl)ccc32)C12CCCCC2
Second compound 0.00949 µM
  IC50: > 1000 nM
Second compound 0.03 µM
  IC50: > 1000 nM
Second compound 0.0949 µM
  IC50: > 1000 nM
Second compound 0.3 µM
  IC50: > 1000 nM
Second compound 0.949 µM
  IC50: > 1000 nM
Second compound 3 µM
  IC50: > 1000 nM
[1]
  viability, T/C: 102%
[2]
  viability, T/C: 102%
[3]
  viability, T/C: 119%
[4]
  viability, T/C: 153%
[5]
  viability, T/C: 230%
[6]
  viability, T/C: 104%
[7]
  viability, T/C: 106%
[8]
  viability, T/C: 108%
[9]
  viability, T/C: 138%
[10]
  viability, T/C: 161%
[11]
  viability, T/C: 241%
[12]
  viability, T/C: 101%
[13]
  viability, T/C: 101%
[14]
  viability, T/C: 97%
[15]
  viability, T/C: 122%
[16]
  viability, T/C: 168%
[17]
  viability, T/C: 208%
[18]
  viability, T/C: 113%
[19]
  viability, T/C: 105%
[20]
  viability, T/C: 103%
[21]
  viability, T/C: 159%
[22]
  viability, T/C: 173%
[23]
  viability, T/C: 238%
[24]
  viability, T/C: 137%
[25]
  viability, T/C: 97.2%
[26]
  viability, T/C: 102%
[27]
  viability, T/C: 163%
[28]
  viability, T/C: 175%
[29]
  viability, T/C: 248%
[30]
  viability, T/C: 139%
[31]
  viability, T/C: 151%
[32]
  viability, T/C: 141%
[33]
  viability, T/C: 183%
[34]
  viability, T/C: 217%
[35]
  viability, T/C: 260%
[36]
  viability, T/C: 161%
